Measured values published in patent US20200270557A1, “HUMAN IN VITRO ORTHOTOPIC AND METASTATIC MODELS OF CANCER” (PRESIDENT AND FELLOWS OF HARVARD COLLEGE, priority 2017, published 2020).

Legend:
H1975 NSCLC cells [1] = experiment: growth inhibition of H1975 NSCLC cells cultured alone under conventional static culture conditions; assay type: cell-based; details: Homo sapiens, NCI-H1975, read-out: half-maximal inhibition
H1975 NSCLC cells [2] = experiment: NSCLC cancer cell growth in microfluidic device (orthotopic lung model) with or without breathing motions; assay type: cell-based, human; details: H1975 NSCLC cells cultured within the microfluidic devices
Method: Primary human lung microvascular endothelial cells were plated the same way as discussed above, except that these cells were plated first with endothelial growth medium. The GFP-labeled NSCLC tumor cells and primary alveolar epithelial cells were then plated using the same method as described above. The following day, the upper microchannel was perfused with epithelial growth medium containing 1 μM dexamethasone and flushed manually for 2-3 days, after which the medium in the upper microchannel was removed to create an air-liquid interface, while the lower microchannel was continuously perfused with air-liquid interface medium at 60 μL/hr. […]
Analysis of cancer cell growth and responses of cancer cells can be monitored visually through the microfluidic device. As discussed above, cancer cell growth can be monitored non-invasively using fluorescence microscopy, such as with a Zeiss TIRF/LSM 710 confocal microscopy and Hamamatsu ImagEM-1K BackThinned EMCCD camera. The number of GFP-labeled cancer cells can be estimated using fluorescence microscopy based on a standard curve generated experimentally that correlates cell density to GFP fluorescence intensity. […]

c-Met = c-Met expression and phosphorylation in NSCLC cells under cyclic mechanical strain; assay type: cell-based, human
Excerpt: Further, many patients with the EGFR […]/T790M mutation who develop resistance to 3rd generation TKIs overexpress the tyrosine protein kinase c-Met, and c-MET overexpression has been implicated as a mechanism of resistance to TKI therapy in NSCLC patients. […] Thus, mechanical breathing motions also may suppress NSCLC cell response to TKI therapy by altering this signaling pathway.

IC50 (H1975 NSCLC cells [1]) [nM]	Structure (SMILES)	response of NSCLC cells to TKIs (H1975 NSCLC cells [2])	effect of increasing dose on expression and phosphorylation of c-Met (c-Met)
~100	C#Cc1cccc(Nc2ncnc3cc(OCCOC)c(OCCOC)cc23)c1 [erlotinib]	responded	–
> 1000	C=CC(=O)Nc1cccc(Nc2nc(Nc3ccc(N4CCN(C(C)=O)CC4)cc3OC)ncc2C(F)(F)F)c1 [rociletinib]	–	no significant effect
